{"source": "PubChem BioAssay AID1259407", "about": "(Chemical Carcinogenesis Research Information System (CCRIS), 2018)", "tested_on": "CCRIS mutagenicity, Ames/micronucleus/aberration tests", "experiment": "CCRIS mutagenicity studies", "key": {"[1]": {"details": "Test System: AMES SALMONELLA TYPHIMURIUM, Strain/Indicator: TA98, Metabolic Activation: NONE, Method: STANDARD PLATE"}, "[2]": {"details": "Test System: AMES SALMONELLA TYPHIMURIUM, Strain/Indicator: TA100, Metabolic Activation: NONE, Method: STANDARD PLATE"}, "[3]": {"details": "Test System: AMES SALMONELLA TYPHIMURIUM, Strain/Indicator: TA1538, Metabolic Activation: NONE, Method: STANDARD PLATE"}, "[4]": {"details": "Test System: AMES SALMONELLA TYPHIMURIUM, Strain/Indicator: TA98, Metabolic Activation: NONE, Method: PREINCUBATION"}, "[5]": {"details": "Test System: AMES SALMONELLA TYPHIMURIUM, Strain/Indicator: TA100, Metabolic Activation: NONE, Method: PREINCUBATION"}}, "note": "Activity calls are given as the source filed them. The rule behind the calls is not given here.", "data": [{"smiles": "CC(=O)Nc1ccc2[nH]c3ccccc3c2c1", "values": [{"measurement": "mutagenic call", "setting": "[1]", "result": "inactive; negative"}, {"measurement": "mutagenic call", "setting": "Test System: AMES SALMONELLA TYPHIMURIUM, Strain/Indicator: TA98, Metabolic Activation: RAT, LIVER, S-9, PHENOBARBITAL, Method: STANDARD PLATE", "result": "active; positive"}, {"measurement": "mutagenic call", "setting": "[2]", "result": "inactive; negative"}, {"measurement": "mutagenic call", "setting": "Test System: AMES SALMONELLA TYPHIMURIUM, Strain/Indicator: TA100, Metabolic Activation: RAT, LIVER, S-9, PHENOBARBITAL, Method: STANDARD PLATE", "result": "inactive; negative"}, {"measurement": "mutagenic call", "setting": "Test System: AMES SALMONELLA TYPHIMURIUM, Strain/Indicator: TA1537, Metabolic Activation: NONE, Method: STANDARD PLATE", "result": "inactive; negative"}, {"measurement": "mutagenic call", "setting": "Test System: AMES SALMONELLA TYPHIMURIUM, Strain/Indicator: TA1537, Metabolic Activation: RAT, LIVER, S-9, PHENOBARBITAL, Method: STANDARD PLATE", "result": "inactive; negative"}, {"measurement": "mutagenic call", "setting": "[3]", "result": "inactive; negative"}, {"measurement": "mutagenic call", "setting": "Test System: AMES SALMONELLA TYPHIMURIUM, Strain/Indicator: TA1538, Metabolic Activation: RAT, LIVER, S-9, PHENOBARBITAL, Method: STANDARD PLATE", "result": "active; positive"}, {"measurement": "mutagenic call", "setting": "Test System: AMES SALMONELLA TYPHIMURIUM, Strain/Indicator: TA1977, Metabolic Activation: NONE, Method: STANDARD PLATE", "result": "inactive; negative"}, {"measurement": "mutagenic call", "setting": "Test System: AMES SALMONELLA TYPHIMURIUM, Strain/Indicator: TA1977, Metabolic Activation: RAT, LIVER, S-9, PHENOBARBITAL, Method: STANDARD PLATE", "result": "inactive; negative"}]}, {"smiles": "NNc1ccccc1[N+](=O)[O-]", "values": [{"measurement": "mutagenic call", "setting": "[4]", "result": "active; positive"}, {"measurement": "mutagenic call", "setting": "Test System: AMES SALMONELLA TYPHIMURIUM, Strain/Indicator: TA98, Metabolic Activation: RAT, LIVER, S-9, KANECHLOR 500, Method: PREINCUBATION", "result": "active; positive"}, {"measurement": "mutagenic call", "setting": "[5]", "result": "active; positive"}]}, {"smiles": "CC(=O)c1oc([N+](=O)[O-])c(Cl)c1Cl", "values": [{"measurement": "mutagenic call", "setting": "[1]", "result": "active; positive"}, {"measurement": "mutagenic call", "setting": "Test System: AMES SALMONELLA TYPHIMURIUM, Strain/Indicator: TA100 (NR), Metabolic Activation: NONE, Method: STANDARD PLATE", "result": "active; positive"}, {"measurement": "mutagenic call", "setting": "[2]", "result": "active; positive"}, {"measurement": "mutagenic call", "setting": "Test System: AMES SALMONELLA TYPHIMURIUM, Strain/Indicator: TA100, Metabolic Activation: NONE, Method: STANDARD PLATE (ANAEROBIC INCUBATION)", "result": "active; positive"}]}, {"smiles": "CCC(C)OC(=O)C=Cc1ccc([N+](=O)[O-])o1", "note": "(centres undefined)", "values": [{"measurement": "mutagenic call", "setting": "[4]", "result": "active; positive"}]}, {"smiles": "CC1=C(C)C2(C3=CC(=O)C=CC3=Nc3ccc(O)cc32)C(C)=C(C)C1=O", "values": [{"measurement": "mutagenic call", "setting": "[3]", "result": "inactive; negative"}, {"measurement": "mutagenic call", "setting": "Test System: AMES SALMONELLA TYPHIMURIUM, Strain/Indicator: TA1538, Metabolic Activation: RAT, LIVER, S-9, AROCLOR 1254, Method: STANDARD PLATE", "result": "inactive; negative"}]}, {"smiles": "O=[N+]([O-])c1cccc2oc3ccccc3c12", "values": [{"measurement": "mutagenic call", "setting": "Test System: AMES SALMONELLA TYPHIMURIUM, Strain/Indicator: TA98(1,8-DNP6), Metabolic Activation: NONE, Method: PREINCUBATION", "result": "inactive; negative"}, {"measurement": "mutagenic call", "setting": "Test System: AMES SALMONELLA TYPHIMURIUM, Strain/Indicator: TA98(1,8-DNP6), Metabolic Activation: NONE, Method: SUSPENSION", "result": "inactive; negative"}, {"measurement": "mutagenic call", "setting": "Test System: AMES SALMONELLA TYPHIMURIUM, Strain/Indicator: TA98(1,8-DNP6), Metabolic Activation: RAT, LIVER, S-9, PCB (5%), Method: PREINCUBATION", "result": "inactive; negative"}, {"measurement": "mutagenic call", "setting": "Test System: AMES SALMONELLA TYPHIMURIUM, Strain/Indicator: TA98(NR), Metabolic Activation: NONE, Method: PREINCUBATION", "result": "inactive; negative"}, {"measurement": "mutagenic call", "setting": "Test System: AMES SALMONELLA TYPHIMURIUM, Strain/Indicator: TA98(NR), Metabolic Activation: NONE, Method: SUSPENSION", "result": "inactive; negative"}, {"measurement": "mutagenic call", "setting": "Test System: AMES SALMONELLA TYPHIMURIUM, Strain/Indicator: TA98(NR), Metabolic Activation: RAT, LIVER, S-9 (10%), Method: PREINCUBATION", "result": "inactive; negative"}, {"measurement": "mutagenic call", "setting": "Test System: AMES SALMONELLA TYPHIMURIUM, Strain/Indicator: TA98(NR), Metabolic Activation: RAT, LIVER, S-9, 3-METHYLCHOLANTHRENE (10%), Method: PREINCUBATION", "result": "active; positive"}, {"measurement": "mutagenic call", "setting": "Test System: AMES SALMONELLA TYPHIMURIUM, Strain/Indicator: TA98(NR), Metabolic Activation: RAT, LIVER, S-9, BETA-NAPHTHOFLAVONE (10%), Method: PREINCUBATION", "result": "inactive; negative"}, {"measurement": "mutagenic call", "setting": "Test System: AMES SALMONELLA TYPHIMURIUM, Strain/Indicator: TA98(NR), Metabolic Activation: RAT, LIVER, S-9, PCB (5%), Method: PREINCUBATION", "result": "inactive; negative"}, {"measurement": "mutagenic call", "setting": "Test System: AMES SALMONELLA TYPHIMURIUM, Strain/Indicator: TA98(NR), Metabolic Activation: RAT, LIVER, S-9, PCB (10%), Method: PREINCUBATION", "result": "inactive; negative"}, {"measurement": "mutagenic call", "setting": "Test System: AMES SALMONELLA TYPHIMURIUM, Strain/Indicator: TA98(NR), Metabolic Activation: RAT, LIVER, S-9, PHENOBARBITAL (10%), Method: PREINCUBATION", "result": "inactive; negative"}, {"measurement": "mutagenic call", "setting": "[4]", "result": "inactive; negative"}, {"measurement": "mutagenic call", "setting": "Test System: AMES SALMONELLA TYPHIMURIUM, Strain/Indicator: TA98, Metabolic Activation: NONE, Method: SUSPENSION", "result": "inactive; negative"}, {"measurement": "mutagenic call", "setting": "Test System: AMES SALMONELLA TYPHIMURIUM, Strain/Indicator: TA98, Metabolic Activation: RAT, LIVER, S-9, PCB (5%), Method: PREINCUBATION", "result": "inactive; negative"}, {"measurement": "mutagenic call", "setting": "Test System: AMES SALMONELLA TYPHIMURIUM, Strain/Indicator: TA98, Metabolic Activation: RAT, LIVER, S-9, PCB, Method: SUSPENSION", "result": "inactive; negative"}, {"measurement": "mutagenic call", "setting": "[5]", "result": "inactive; negative"}, {"measurement": "mutagenic call", "setting": "Test System: AMES SALMONELLA TYPHIMURIUM, Strain/Indicator: TA100, Metabolic Activation: NONE, Method: SUSPENSION", "result": "inactive; negative"}, {"measurement": "mutagenic call", "setting": "Test System: AMES SALMONELLA TYPHIMURIUM, Strain/Indicator: TA100, Metabolic Activation: RAT, LIVER, S-9, PCB (5%), Method: PREINCUBATION", "result": "inactive; negative"}, {"measurement": "mutagenic call", "setting": "Test System: AMES SALMONELLA TYPHIMURIUM, Strain/Indicator: TA100, Metabolic Activation: RAT, LIVER, S-9, PCB, Method: SUSPENSION", "result": "inactive; negative"}]}, {"smiles": "COC(=O)C(Cl)Cl", "values": [{"measurement": "mutagenic call", "setting": "End Point: IN VITRO CHROMOSOMAL ABERRATIONS, Test System: CHL CELLS, Metabolic Activation: NONE", "result": "active; positive (structural changes); precipitation of test chemical observed above 1.6"}, {"measurement": "mutagenic call", "setting": "End Point: IN VITRO CHROMOSOMAL ABERRATIONS, Test System: CHL CELLS, Metabolic Activation: RAT, LIVER, S-9, SODIUM PHENOBARBITAL AND 5,6-BENZOFLAVONE", "result": "active; positive (structural changes); precipitation of test chemical observed above 2.0"}, {"measurement": "mutagenic call", "setting": "Test System: AMES SALMONELLA TYPHIMURIUM, Strain/Indicator: TA102, Metabolic Activation: RAT, LIVER, S-9, PHENOBARBITAL AND 5,6-BENZOFLAVONE, Method: STANDARD PLATE", "result": "active; positive"}, {"measurement": "mutagenic call", "setting": "Test System: AMES SALMONELLA TYPHIMURIUM, Strain/Indicator: TA2638, Metabolic Activation: RAT, LIVER, S-9, PHENOBARBITAL AND 5,6-BENZOFLAVONE, Method: STANDARD PLATE", "result": "active; positive"}, {"measurement": "mutagenic call", "setting": "Test System: E. COLI, Strain/Indicator: WP2 (PKM101), Metabolic Activation: RAT, LIVER, S-9, PHENOBARBITAL AND 5,6-BENZOFLAVONE, Method: STANDARD PLATE", "result": "active; positive"}, {"measurement": "mutagenic call", "setting": "Test System: E. COLI, Strain/Indicator: WP2 UVRA (PKM101), Metabolic Activation: RAT, LIVER, S-9, PHENOBARBITAL AND 5,6-BENZOFLAVONE, Method: STANDARD PLATE", "result": "active; positive"}]}, {"smiles": "C=C(C=O)CC", "values": [{"measurement": "mutagenic call", "setting": "[5]", "result": "active; positive"}, {"measurement": "mutagenic call", "setting": "Test System: AMES SALMONELLA TYPHIMURIUM, Strain/Indicator: TA100, Metabolic Activation: RAT LIVER S-9, AROCLOR 1254, Method: PREINCUBATION", "result": "active; positive"}, {"measurement": "mutagenic call", "setting": "Test System: AMES SALMONELLA TYPHIMURIUM, Strain/Indicator: TA100, Metabolic Activation: RAT, LIVER, S-9, AROCLOR 1254, Method: PREINCUBATION", "result": "active; positive"}]}, {"smiles": "N[C@@H](CCC(=O)N[C@@H](CS/C(Cl)=C(\\Cl)C(Cl)=C(Cl)Cl)C(=O)NCC(=O)O)C(=O)O", "values": [{"measurement": "mutagenic call", "setting": "[5]", "result": "active; positive"}, {"measurement": "mutagenic call", "setting": "[2]", "result": "inactive; negative"}, {"measurement": "mutagenic call", "setting": "Test System: AMES SALMONELLA TYPHIMURIUM, Strain/Indicator: TA100, Metabolic Activation: RAT, KIDNEY, CYTOSOL, Method: PREINCUBATION", "result": "active; positive"}, {"measurement": "mutagenic call", "setting": "Test System: AMES SALMONELLA TYPHIMURIUM, Strain/Indicator: TA100, Metabolic Activation: RAT, KIDNEY, MICROSOMES, Method: PREINCUBATION", "result": "active; positive"}, {"measurement": "mutagenic call", "setting": "Test System: AMES SALMONELLA TYPHIMURIUM, Strain/Indicator: TA100, Metabolic Activation: RAT, KIDNEY, MITOCHONDRIA, Method: PREINCUBATION", "result": "active; positive"}, {"measurement": "mutagenic call", "setting": "Test System: AMES SALMONELLA TYPHIMURIUM, Strain/Indicator: TA100, Metabolic Activation: RAT, KIDNEY, S-9, AROCLOR 1254, Method: STANDARD PLATE", "result": "active; positive"}]}]}
